# Source: patent publication US7608642B2, “Wound and skin care compositions” (Kimberly-Clark Worldwide, Inc., priority 2002, dated 2009)
# Where “and” joins values, the source holds several entries; their conditions need not be identical. Equal entries are not always repeated. Entries after “also recorded” stand apart in the source; their conditions may differ. Where two headings read alike, the source gives them in different places.
# Assays:
# [1] = tested on: collagen production in the human skin fibroblast cell line; test: Collagen production in human skin fibroblasts (Takara EIA kit MK101, absorbance 450 nm); format: cell-based; conditions: for Stimulation of collagen production (in words): 1×10^−4 M to 1×10^−6 M vs control; for Mean optical density (OD) at 450 nm, collagen production / Median optical density (OD) at 450 nm, collagen production: 48 hours, n=2
# Description: The cells were first grown in a 96-well assay system using Dulbecco's Modified Eagle's Medium (DMEM) with 10% fetal bovine serum (FBS) both purchased from Sigma Chemical Co, St. Louis, Mo. Serum-free DMEM was used as a control.
# The assay was done by using the recommended 20 ul of the supernatant from each well of the 96-well plate. Standard buffer and stop solutions were freshly prepared before running the assay. 100 ul of antibody-POD conjugate solution (supplied with the kit) was added into the wells using pre antibody coated 96 well plate (supplied with the kit). 20 ul of standard and test solutions (from the other 96-well plate containing fibroblasts) were added to appropriate wells. Plate was mixed gently, sealed and incubated for three hrs. at 37° C.
# After incubation each well was washed carefully four times with PBS buffer (400 ul). All the wells were completely emptied at the end of washing from any liquid.
# 100 ul of substrate solution (hydrogen peroxide and tetramethylbenzidine in a buffer solution, supplied with the kit) was added to each well and the plate was incubated for 15 minutes. At this point 100 ul of stop solution (freshly prepared 1N H2SO4) was added to each well in the same order as substrate. The plate was gently mixed and absorbance was read at 450 nm.
# [2] = tested on: human skin keratinocyte cell line (normal human epidermal keratinocytes, neonatal); test: Proliferation of human skin keratinocytes (Cell Titer 96, absorbance 490 nm); format: cell-based; conditions: for Cell proliferating activity on human keratinocytes (in words): 1×10^−4 M to 1×10^−6 M vs control; for Mean optical density (OD) at 490 nm, cell proliferation / Median optical density (OD) at 490 nm, cell proliferation: 48 hours, KBM, n=5
# Description: In addition, 100 μl of vehicle KBM was added to 5 wells as control. […] The spectrophotometric absorbance of each well was read at 490 nm.
# [3] = tested on: fibronectin production in the human skin fibroblast cell line; test: Fibronectin production in human skin fibroblasts (Takara EIA kit MK115, absorbance 450 nm); format: cell-based; conditions: for Stimulation of fibronectin production (in words): 1×10^−4 M to 1×10^−6 M vs control; for Mean optical density (OD) at 450 nm, fibronectin production / Median optical density (OD) at 450 nm, fibronectin production: 48 hours, n=2
# Description: The cells were first grown in a 96-well assay system using Dulbecco's Modified Eagle's Medium (DMEM) with 10% fetal bovine serum (FBS) both purchased from Sigma Chemical Co, St. Louis, Mo. Serum-free DMEM was used as a control. […] The fibronectin assay was performed using the recommended 100 μl of the supernatant from each well of the 96-well plate. Standard buffer and stop solutions were freshly prepared before running the assay. A pre-antibody-coated 96 well plate (provided with the kit) was used to transfer the test samples and control. The plate was mixed, sealed and incubated for 1 hour at 37° C. All the wells were washed after removing sample solutions, 3 times (300 μl) with washing buffer. 100 ul of antibody-POD conjugate solution was added into the wells. Plate was mixed, sealed and incubated for one hour at 37° C. Solutions were removed and the wells were washed 3 times with washing buffer. All the wells were completely emptied at the end of washing from any liquid. 100 μl of substrate solution (hydrogen peroxide and tetramethylbenzidine in a buffered solution) was added to each well and the plate was incubated at room temperature for 15 minutes. 100 μl of stop solution (freshly prepared 1N H2SO4) was added to each well in the same order as substrate. The plate was gently mixed and absorbance was read at 450 nm.
# [4] = tested on: human skin fibroblast cell line (normal human dermal fibroblasts, neonatal); conditions: for Cell proliferating activity on human skin fibroblasts (in words): 1×10^−4 M to 1×10^−6 M vs control; for Mean optical density (OD) at 490 nm, cell proliferation / Median optical density (OD) at 490 nm, cell proliferation: 28 hours, serum-free DMEM, n=5
# Description: Statistical analyses of data were performed using one-way ANOVA. P<0.05 is considered significant, while P<0.0001 is considered extremely significant and P<0.001 is considered as very very significant.
# Swiss Albino mice = test: Wound healing, full thickness skin wounds (3 mm biopsy punch) in mice; format: in vivo, mouse
# Description: Twenty, 12-week old Swiss Albino mice were anesthetized with a ketamine/acepromazine cocktail and subjected to four full thickness skin wounds on the dorsolateral surface. […] Jasmonic acid (100 mg) was dissolved in 2 ml ethanol. 200 μl of the resulting solution was then added to 4.8 ml of WFI. Four wounds were made on either side of the spinal column using a 3 mm biopsy punch. To make the wounds, the skin was first tented and the punch was driven through the tented skin to generate both wounds with a single stroke. The upper left quadrant wound site of the animal was assigned to receive the control solution (WFI). […] The wound sites were dosed 5 times (twice on Day 0, Day 1, and once on Day 2). All wounds were treated with 5 μl of test or control solutions. Wounds were allowed to absorb the solutions for 5 minutes before returning the animals to their cages for recovery. All the animals were housed singly. The in-life phase for the animals is 5 days. Each day the wounds on the mice were traced onto glass slides and measured using calipers accurate to the nearest 0.1 mm. Photographs of the wounds were also taken daily for the duration of the study to measure wound size. Means and the standard deviations of the wound diameters for each day were calculated for the healing profile. The effects of the test substances on wound healing were compared to the effects of the control (WFI).
# [5] = tested on: healthy female volunteers; test: Dansyl chloride cell renewal study (stratum corneum renewal time); format: in vivo, human
# Text: The stratum corneum renewal time is the time taken for the whole thickness of the stratum corneum to be exfoliated and replaced by new cells from the dividing epidermis. This renewal time is a fundamental indicator of skin health. […] See Jansen L H, Hojyo-Tomoko M T, Kligman A M., Improved fluorescence staining technique for estimating turnover of the human stratum corneum, Br J Dermatol., 90, 9-12, 1974; Ridge B D, Batt M D, Palmer H E, Jarrett A, The dansyl chloride technique for stratum corneum renewal as an indicator of changes in epidermal mitotic activity following topical treatment., Br J Dermatol., 118, 167-74, 1988; Grove G L, Kligman A M, Age-associated changes in human epidermal cell renewal., J Geron., 38, 137-142, 1983. The time required for the dye to disappear is therefore an indication of the turnover time of the stratum corneum. Therefore, any differences in the time required for the dye to disappear from treated and non-treated sites can be considered to be an expression of that product's ability to enhance epidermal renewal.
# A dansyl chloride cell renewal study was conducted in healthy female volunteers ranging from 43-64 years of age. The study consisted of a two-week treatment period during which time the products were applied topically twice daily, including on weekend days, to the test sites. The area of application was designated, approximately 5 cm×10 cm on the upper inner arm. The other arm served as a control with no product application. […] Eight females received jasmonic acid and seven females received gibberellic acid.
# The time required for a marker dye to disappear was used as the measure of cell renewal rate.
Molecule,Stimulation of collagen production (in words) [1],"Mean optical density (OD) at 450 nm, collagen production ([1]; 1×10^−4 M)","Median optical density (OD) at 450 nm, collagen production ([1]; 1×10^−4 M)","Mean optical density (OD) at 450 nm, collagen production ([1]; 1×10^−5 M)","Median optical density (OD) at 450 nm, collagen production ([1]; 1×10^−5 M)","Mean optical density (OD) at 450 nm, collagen production ([1]; 1×10^−6 M)","Median optical density (OD) at 450 nm, collagen production ([1]; 1×10^−6 M)","Mean optical density (OD) at 490 nm, cell proliferation ([2]; 1×10^−4 M)","Median optical density (OD) at 490 nm, cell proliferation ([2]; 1×10^−4 M)","Mean optical density (OD) at 490 nm, cell proliferation ([2]; 1×10^−5 M)","Median optical density (OD) at 490 nm, cell proliferation ([2]; 1×10^−5 M)","Mean optical density (OD) at 490 nm, cell proliferation ([2]; 1×10^−6 M)","Median optical density (OD) at 490 nm, cell proliferation ([2]; 1×10^−6 M)",Stimulation of fibronectin production (in words) [3],"Mean optical density (OD) at 450 nm, fibronectin production ([3]; 1×10^−4 M)","Median optical density (OD) at 450 nm, fibronectin production ([3]; 1×10^−4 M)","Mean optical density (OD) at 450 nm, fibronectin production ([3]; 1×10^−5 M)","Median optical density (OD) at 450 nm, fibronectin production ([3]; 1×10^−5 M)","Mean optical density (OD) at 450 nm, fibronectin production ([3]; 1×10^−6 M)","Median optical density (OD) at 450 nm, fibronectin production ([3]; 1×10^−6 M)",further results
zeatin,strongly stimulated collagen production at medium concentrations; also recorded: medium concentrations of zeatin also stimulated collagen production,0.7665,0.7665,0.8115,0.8115,0.7715,0.7715,0.7726,0.7880,0.8716,0.8790,0.9770,0.9830,effective for stimulating fibronectin production in human fibroblasts; also recorded: all compounds stimulated fibronectin production,0.2075,0.2075,0.2110,0.2110,0.1995,0.1995,Cell proliferating activity on human keratinocytes (in words) ([2]; listed as t-zeatin): strong cell proliferating activity at all concentrations; also recorded: all concentrations of t-zeatin had a significant effect on cell growth
CC(=O)Oc1ccccc1C(=O)O [acetylsalicylic acid],,,,,,,,,,,,,,,,,,,,,"Cell proliferating activity on human skin fibroblasts (in words) [4]: strong cell proliferating activity at all concentrations; also recorded: all concentrations of acetylsalicylic acid had a significant effect on cell growth; Mean optical density (OD) at 490 nm, cell proliferation ([4]; 1×10^−4 M): 0.5406; Median optical density (OD) at 490 nm, cell proliferation ([4]; 1×10^−4 M): 0.5290; Mean optical density (OD) at 490 nm, cell proliferation ([4]; 1×10^−5 M): 0.6276; Median optical density (OD) at 490 nm, cell proliferation ([4]; 1×10^−5 M): 0.6270; Mean optical density (OD) at 490 nm, cell proliferation ([4]; 1×10^−6 M): 0.6590; Median optical density (OD) at 490 nm, cell proliferation ([4]; 1×10^−6 M): 0.6590"
O=C(O)c1ccccc1O [salicylic acid],,,,,,,,,,,,,,,,,,,,,"Cell proliferating activity on human skin fibroblasts (in words) [4]: strong cell proliferating activity especially at the lower concentrations; also recorded: all concentrations of salicylic acid had a significant effect on cell growth; Mean optical density (OD) at 490 nm, cell proliferation ([4]; 1×10^−4 M): 0.3916; Mean optical density (OD) at 490 nm, cell proliferation ([4]; 1×10^−5 M): 0.5004; Median optical density (OD) at 490 nm, cell proliferation ([4]; 1×10^−5 M): 0.5110; Mean optical density (OD) at 490 nm, cell proliferation ([4]; 1×10^−6 M): 0.4668; Median optical density (OD) at 490 nm, cell proliferation ([4]; 1×10^−6 M): 0.4690"
CC/C=C\C[C@H]1C(=O)CC[C@@H]1CC(=O)O [jasmonic acid],strongly stimulated collagen production at higher concentrations; also recorded: Higher concentrations of jasmonic acid and medium concentrations of zeatin also stimulated collagen production,0.8040,0.8040,0.7895,0.7895,0.7475,0.7475,0.5732,0.5860,0.7628,0.7750,0.7734,0.7970,effective for stimulating fibronectin production in human fibroblasts; also recorded: all compounds stimulated fibronectin production,0.2060,0.2060,0.2025,0.2025,0.1955,0.1955,"Time control-treated wounds required to close to the same extent achieved in jasmonic acid-treated wounds on day 1 (Swiss Albino mice; topical 0.2% solution vs control (WFI)): over 2.5 days; Effect on wound closure / wound healing (in words) (Swiss Albino mice; topical 5 μl of 0.2% solution, 5 doses Day 0-2, vs control (WFI)): significantly accelerated the rate of wound healing; also recorded: experienced slower wound closure than mice receiving a 0.2% solution of jasmonic acid; Cell proliferating activity on human keratinocytes (in words) [2]: strong cell proliferating activity especially at the lower concentrations; also recorded: all concentrations of jasmonic acid had an effect on cell growth; Time for cell renewal, treated skin (RENEWAL) ([5]; 0.25% in hyaluronic acid (0.5% aqueous solution), topical twice daily for two weeks, upper inner arm, individual patients, listed as JA): 12 Days (2×) and 16 Days and 15 Days (2×) and 17 Days and 14 Days and 11 Days; Skin irritation or redness ([5]; in vivo): no visible sign of any skin irritation or redness"
